In PubChem BioAssay (NCI):
“And” between values parts separate entries of the source, which are not always exact repeats. Identical values can stand only once.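 1) Cells in 96-well plates. 2) Compound, 48 h, 5 concentrations. 3) Linear interpolation between surrounding doses. 4) Unreached endpoint = highest concentration. GI50 marks 50% less growth. The concentration for full growth arrest is given as TGI.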

Experiments:
Assay in all cases: inhibition of tumour cell growth, NCI panel, 48 h
786-0 renal = tested on: 786-0 renal
A498 renal = tested on: A498 renal
BT-549 breast = tested on: BT-549 breast
HCT-15 colon = tested on: HCT-15 colon
HOP-62 NSCLC = tested on: HOP-62 NSCLC
HS 578T breast = tested on: HS 578T breast
LOX IMVI melanoma = tested on: LOX IMVI melanoma
PC-3 prostate = tested on: PC-3 prostate
SK-OV-3 ovarian = tested on: SK-OV-3 ovarian
UO-31 renal = tested on: UO-31 renal

## CC(C)=CCc1ccc(O)c(=O)cc1C(C)C
786-0 renal
  GI50: 0.816 µM
  TGI: 5.4 µM
A498 renal
  GI50: 5.18 µM
  TGI: 64.7 µM
BT-549 breast
  GI50: 1.05 µM
  TGI: 36.4 µM
HCT-15 colon
  GI50: 0.362 µM
  TGI: > 100 µM
HOP-62 NSCLC
  GI50: 0.685 µM
  TGI: > 100 µM
HS 578T breast
  GI50: 48.1 µM
  TGI: > 100 µM
LOX IMVI melanoma
  GI50: 0.327 µM
  TGI: > 22.9 µM
PC-3 prostate
  GI50: 1.13 µM
  TGI: > 100 µM
SK-OV-3 ovarian
  GI50: 0.903 µM
  TGI: > 100 µM
UO-31 renal
  GI50: 0.378 µM
  TGI: 3.92 µM

## Cc1[nH]n(-c2ccc(S(=O)(=O)O)cc2)c(=O)c1N=Nc1ccccc1
786-0 renal
  TGI: > 100 µM
A498 renal
  TGI: > 100 µM
BT-549 breast
  TGI: > 100 µM
HCT-15 colon
  TGI: > 100 µM
HOP-62 NSCLC
  TGI: > 100 µM
HS 578T breast
  TGI: > 100 µM
LOX IMVI melanoma
  TGI: > 100 µM
PC-3 prostate
  TGI: > 100 µM
SK-OV-3 ovarian
  TGI: > 100 µM
UO-31 renal
  TGI: > 100 µM

## O=C(Nc1cccc([N+](=O)[O-])c1)c1ccc2ccccc2c1O
786-0 renal
  GI50: 4.46 µM
  TGI: > 100 µM
A498 renal
  GI50: 3.27 µM
  TGI: > 66.7 µM
BT-549 breast
  GI50: 1.75 µM
  TGI: 5.53 µM
HCT-15 colon
  GI50: 9 µM
  TGI: > 78.3 µM
HOP-62 NSCLC
  GI50: 10.8 µM
  TGI: > 100 µM
HS 578T breast
  GI50: 2.91 µM
  TGI: > 28.4 µM
LOX IMVI melanoma
  GI50: 9.94 µM
  TGI: > 100 µM
PC-3 prostate
  GI50: 3.87 µM
  TGI: > 80.7 µM
SK-OV-3 ovarian
  GI50: 7.05 µM
  TGI: > 59.9 µM
UO-31 renal
  GI50: 3.35 µM
  TGI: > 53 µM

## O=C1Nc2ccccc2/C1=C/c1ccccc1
786-0 renal
  TGI: 28.4 µM
A498 renal
  TGI: 30.5 µM
BT-549 breast
  TGI: 31.2 µM
HCT-15 colon
  TGI: 35.4 µM
HOP-62 NSCLC
  TGI: 38.5 µM
HS 578T breast
  TGI: 91.8 µM
LOX IMVI melanoma
  TGI: 27.6 µM
PC-3 prostate
  TGI: 31.1 µM
SK-OV-3 ovarian
  TGI: 98.3 µM
UO-31 renal
  TGI: 25.3 µM

## NC(N)=N/N=C(/c1ccccc1)c1ccc(Cl)cc1
786-0 renal
  GI50: 16 µM
  TGI: > 100 µM
A498 renal
  GI50: 4.71 µM
  TGI: 28.7 µM
BT-549 breast
  GI50: 50.5 µM
  TGI: > 100 µM
HCT-15 colon
  GI50: 5.8 µM
  TGI: > 100 µM
HOP-62 NSCLC
  GI50: 30.4 µM
  TGI: > 100 µM
HS 578T breast
  GI50: 8.57 µM
  TGI: 51.7 µM
LOX IMVI melanoma
  GI50: 18.4 µM
  TGI: > 100 µM
PC-3 prostate
  GI50: 3.84 µM
  TGI: > 100 µM
SK-OV-3 ovarian
  GI50: 39.7 µM
  TGI: > 100 µM
UO-31 renal
  GI50: 17.2 µM
  TGI: > 100 µM

## Nc1nc(Cl)c(N=Nc2ccc(Cl)cc2)c(NCC2(CO)CC(OCc3ccccc3)C2)n1 (centres undefined)
786-0 renal
  GI50: 5.31 µM and 11.1 µM and 2.12 µM
A498 renal
  GI50: 30.9 µM and > 100 µM and 20.2 µM
  TGI: 91.8 µM and > 100 µM and 44.1 µM
BT-549 breast
  GI50: 4.98 µM and 45.7 µM and 8.82 µM
  TGI: 46 µM and > 100 µM and 23.9 µM
HCT-15 colon
  TGI: > 100 µM and 20.1 µM
HOP-62 NSCLC
  TGI: 49.4 µM and > 100 µM and 22.5 µM
HS 578T breast
  GI50: 7.33 µM and 29.1 µM and 8.36 µM
  TGI: 36.2 µM and > 100 µM and > 53.7 µM
LOX IMVI melanoma
  GI50: 2.04 µM and 18.1 µM and 2.72 µM
  TGI: 20.7 µM and > 100 µM and 11.3 µM
PC-3 prostate
  GI50: 42.8 µM and 10.9 µM
  TGI: 77.5 µM and > 100 µM and 26.5 µM
SK-OV-3 ovarian
  TGI: 69.9 µM and > 100 µM and 30 µM
UO-31 renal
  GI50: 3.27 µM
  TGI: 12.5 µM and 6.43 µM

## COc1ccc(N(C)c2nc(Cl)nc3ccn(C)c23)cc1
786-0 renal
  GI50: < 0.01 µM
  TGI: > 100 µM
A498 renal
  GI50: < 0.01 µM
  TGI: > 100 µM
BT-549 breast
  GI50: < 0.01 µM
  TGI: > 100 µM
HCT-15 colon
  GI50: < 0.01 µM
  TGI: > 100 µM
HOP-62 NSCLC
  GI50: < 0.01 µM
  TGI: > 100 µM
HS 578T breast
  GI50: < 0.01 µM
  TGI: > 100 µM
LOX IMVI melanoma
  GI50: < 0.01 µM
  TGI: > 100 µM
PC-3 prostate
  GI50: < 0.01 µM
  TGI: > 100 µM
SK-OV-3 ovarian
  GI50: < 0.01 µM
  TGI: > 100 µM
UO-31 renal
  GI50: 0.139 µM
  TGI: > 100 µM

## Cn1ccnc1C(=O)/C=C/c1ccc(C(=O)Nc2ccccc2O)cc1
786-0 renal
  GI50: 1.98 µM
  TGI: 4.64 µM
A498 renal
  GI50: 2.07 µM
  TGI: 6.18 µM
BT-549 breast
  GI50: 1.8 µM
  TGI: 5.05 µM
HCT-15 colon
  GI50: 1.42 µM
  TGI: 5.49 µM
HOP-62 NSCLC
  GI50: 4.6 µM
  TGI: 15.1 µM
HS 578T breast
  GI50: 2.95 µM
  TGI: 15.9 µM
LOX IMVI melanoma
  GI50: 1.38 µM
  TGI: 3.12 µM
PC-3 prostate
  GI50: 1.89 µM
  TGI: 4.8 µM
SK-OV-3 ovarian
  GI50: 4.13 µM
  TGI: 14.5 µM
UO-31 renal
  GI50: 1.24 µM
  TGI: 2.5 µM

## COc1cc(/C=C/C(=O)C(C(=O)/C=C/c2ccc(OC(=O)CCNc3nnc(C)s3)c(OC)c2)C(=O)CCNc2nnc(C)s2)ccc1OC(=O)CCNc1nnc(C)s1
786-0 renal
  GI50: 2.58 µM
  TGI: 9.51 µM
A498 renal
  GI50: 2.51 µM
  TGI: 6.67 µM
BT-549 breast
  GI50: 2.36 µM
  TGI: 5.77 µM
HCT-15 colon
  GI50: 2.47 µM
  TGI: 5.86 µM
HOP-62 NSCLC
  GI50: 5.02 µM
  TGI: > 31.8 µM
HS 578T breast
  GI50: 2.77 µM
  TGI: 9.7 µM
LOX IMVI melanoma
  GI50: 1.89 µM
  TGI: 3.84 µM
PC-3 prostate
  GI50: 2.85 µM
  TGI: 15.4 µM
SK-OV-3 ovarian
  GI50: 4.65 µM
  TGI: 23.6 µM
UO-31 renal
  GI50: 1.62 µM
  TGI: 3.67 µM

## Cc1ccc(NSc2ccccc2[N+](=O)[O-])cc1
786-0 renal
  GI50: 1.5 µM
  TGI: 16.3 µM
A498 renal
  GI50: 0.186 µM
  TGI: 3.75 µM
BT-549 breast
  GI50: 2.21 µM
  TGI: 23 µM
HCT-15 colon
  GI50: 0.155 µM
  TGI: 14.2 µM
HOP-62 NSCLC
  GI50: 0.283 µM
  TGI: 18.8 µM
HS 578T breast
  GI50: 0.921 µM
  TGI: 13.8 µM
LOX IMVI melanoma
  GI50: 0.912 µM
  TGI: 18.5 µM
PC-3 prostate
  GI50: 1.29 µM
  TGI: 16.6 µM
SK-OV-3 ovarian
  GI50: 1.06 µM
  TGI: 20.1 µM
UO-31 renal
  GI50: 2.07 µM
  TGI: 16 µM

## COc1cc(Nc2ncc3c(C)nc(-c4cccc(Oc5ccccc5)c4)n3n2)cc(OC)c1OC
786-0 renal
  GI50: 6.2 µM
  TGI: > 25 µM
A498 renal
  GI50: 2.03 µM
  TGI: > 22.9 µM
BT-549 breast
  GI50: 6.86 µM
  TGI: > 25 µM
HCT-15 colon
  GI50: 2.5 µM
  TGI: > 25 µM
HOP-62 NSCLC
  GI50: 10.6 µM
  TGI: > 25 µM
HS 578T breast
  GI50: 7.51 µM
  TGI: > 25 µM
LOX IMVI melanoma
  GI50: 3.57 µM
  TGI: > 15.5 µM
PC-3 prostate
  GI50: 5.1 µM
  TGI: 24.6 µM
SK-OV-3 ovarian
  GI50: 1.74 µM
  TGI: > 25 µM
UO-31 renal
  GI50: 1.39 µM
  TGI: 18.2 µM

## CO/N=C(\COc1ccc2c(c1)oc(=O)c1cc(OC)ccc12)c1ccc(F)cc1
786-0 renal
  GI50: 14.3 µM
  TGI: 28.7 µM
A498 renal
  GI50: 22.3 µM
  TGI: 93.5 µM
BT-549 breast
  GI50: 23.4 µM
  TGI: 55.2 µM
HCT-15 colon
  GI50: 24.7 µM
  TGI: 81.9 µM
HOP-62 NSCLC
  GI50: 16.4 µM
  TGI: 34.1 µM
HS 578T breast
  GI50: 29.9 µM
  TGI: > 100 µM
LOX IMVI melanoma
  GI50: 26 µM
  TGI: 72.9 µM
PC-3 prostate
  GI50: 20.9 µM
  TGI: 66.5 µM
SK-OV-3 ovarian
  GI50: 48.5 µM
  TGI: > 100 µM
UO-31 renal
  GI50: 12.7 µM
  TGI: 32.3 µM

## CNc1cccnc1/C=N/NC(N)=S
786-0 renal
  TGI: > 10 µM
A498 renal
  TGI: > 10 µM
BT-549 breast
  TGI: > 10 µM
HCT-15 colon
  TGI: > 7.32 µM
HOP-62 NSCLC
  TGI: > 8.19 µM
HS 578T breast
  TGI: > 10 µM
LOX IMVI melanoma
  TGI: > 10 µM
PC-3 prostate
  TGI: > 10 µM
SK-OV-3 ovarian
  TGI: > 10 µM
UO-31 renal
  TGI: 4.5 µM

## Cc1ccc(/C=C/C(=O)c2ccc(N)cc2)c(C)c1
786-0 renal
  GI50: 1.88 µM
  TGI: 3.45 µM
A498 renal
  GI50: 13.6 µM
  TGI: 27.5 µM
BT-549 breast
  GI50: 1.68 µM
  TGI: 3.4 µM
HOP-62 NSCLC
  GI50: 17 µM
  TGI: 38 µM
HS 578T breast
  GI50: 18.2 µM
  TGI: 80 µM
LOX IMVI melanoma
  GI50: 0.321 µM
  TGI: 1.18 µM
PC-3 prostate
  GI50: 14.6 µM
  TGI: 28.2 µM
SK-OV-3 ovarian
  GI50: 16.5 µM
  TGI: 31.3 µM
UO-31 renal
  GI50: 1.83 µM
  TGI: 3.92 µM
